Tests used:
[1] = test system: oilseed rape homozygous for HETO133 and HETO134; experiment: Further field trial, phytotoxicity (Table 3); format: in vivo, Brassica napus; settings: g ai/ha: IMAZAMOX 40, BISPYRIBAC-SODIUM 50, PROPOXYCARBAZONE-SODIUM 70, MESOSULFURON-METHYL 60, PYROXSULAM 12.5 with CLOQUINTOCET-MEXYL 37.5, each with RAPESEED OIL METHYLATED 366.5
Experimental: (§1) In a further field trial, seeds of spring oilseed rape comprising HETO133 and HETO134, and wild type (WT) seeds were sown in a field. For the untreated plants, biomass was determined at 9, 16 and 24 days after application (DAA) as compared to a control variety. For the treated plants, phytotoxicity was assessed at 9, 16 and 24 days after application (DAA) according to a scale from 0 to 100%. For both wild-type and HETO133-HETO134, no thinning was observed.

[2] = test system: wild-type (WT) oilseed rape; experiment: Further field trial, phytotoxicity (Table 3); format: in vivo, Brassica napus; settings: g ai/ha: IMAZAMOX 40, BISPYRIBAC-SODIUM 50, PROPOXYCARBAZONE-SODIUM 70, MESOSULFURON-METHYL 60, PYROXSULAM 12.5 with CLOQUINTOCET-MEXYL 37.5, each with RAPESEED OIL METHYLATED 366.5
Experimental: as §1

[3] = test system: oilseed rape homozygous for HETO133 and HETO134; experiment: Field trial, visible phytotoxicity (Table 2); format: in vivo, Brassica napus; settings: applied at BBCH 14, 200 L/ha water, g ai/ha: Foramsulfuron 25, TCM 15, Iodosulfuron 7, Mesosulfuron 60, Amidosulfuron 30, Ethoxysulfuron 60, Imazamox 40, Metosulam 30, Bispyribac 50, Nicosulfuron 60, Metsulfuron 8, Propoxycarbazone 70, Pyroxsulam 50, Tribenuron 30, Rimsulfuron 12.5, Flucarbazone 40, Thifensulfuron 7.5
Text: (§2) Seeds of spring oilseed rape homozygous for HETO133 and HETO134 were sown in a field according to typical practical agricultural methods. The registered spring oilseed rape variety ABILITY, the wild-type segregant (WTS), and plants comprising a P197S mutation on ALS I and a W574L mutation on ALS III (P197S-W574L) served as a comparison. All plants were cultivated up to BBCH stage 14 (four true leaves of the oilseed rape plants). Afterwards, the herbicides mentioned in table 2 have been applied to the oilseed rape plants by using specific spray equipment for small plot applications. The water amount used was 200 L/ha.

[4] = test system: spring oilseed rape variety ABILITY; experiment: Field trial, visible phytotoxicity (Table 2); format: in vivo, Brassica napus; settings: applied at BBCH 14, 200 L/ha water, g ai/ha: Foramsulfuron 25, TCM 15, Iodosulfuron 7, Mesosulfuron 60, Amidosulfuron 30, Ethoxysulfuron 60, Imazamox 40, Metosulam 30, Bispyribac 50, Nicosulfuron 60, Metsulfuron 8, Propoxycarbazone 70, Pyroxsulam 50, Tribenuron 30, Rimsulfuron 12.5, Flucarbazone 40, Thifensulfuron 7.5
Text: as §2

[5] = test system: oilseed rape comprising a P197S mutation on ALS I and a W574L mutation on ALS III (P197S-W574L); experiment: Field trial, visible phytotoxicity (Table 2); format: in vivo, Brassica napus; settings: applied at BBCH 14, 200 L/ha water, g ai/ha: Foramsulfuron 25, TCM 15, Iodosulfuron 7, Mesosulfuron 60, Amidosulfuron 30, Ethoxysulfuron 60, Imazamox 40, Metosulam 30, Bispyribac 50, Nicosulfuron 60, Metsulfuron 8, Propoxycarbazone 70, Pyroxsulam 50, Tribenuron 30, Rimsulfuron 12.5, Flucarbazone 40, Thifensulfuron 7.5
Text: as §2

[6] = test system: wild-type segregant (WTS) oilseed rape; experiment: Field trial, visible phytotoxicity (Table 2); format: in vivo, Brassica napus; settings: applied at BBCH 14, 200 L/ha water, g ai/ha: Foramsulfuron 25, TCM 15, Iodosulfuron 7, Mesosulfuron 60, Amidosulfuron 30, Ethoxysulfuron 60, Imazamox 40, Metosulam 30, Bispyribac 50, Nicosulfuron 60, Metsulfuron 8, Propoxycarbazone 70, Pyroxsulam 50, Tribenuron 30, Rimsulfuron 12.5, Flucarbazone 40, Thifensulfuron 7.5
Text: as §2

[7] = test system: Hypocotyl derived callus (WT tissues); experiment: Callus selection on Foramsulfuron containing medium; format: cell-based, Brassica napus
Experimental: Five day old seedlings were used for the preparation of hypocotyl segments 7-10 mm in length. Hypocotyl segments were transferred to 14 cm Petri plates containing 75 ml of M-338 [H76] callus induction medium (25 explants/plate). M-338 [H76] medium is MS salts and vitamins (Murashige and Skoog, 1962), 20 g/l sucrose, 0.5 g/l MES, 0.5 g/l adenine sulphate, 5 mg/l silver nitrate, 0.5 mg/l 2,4-D, 0.2 mg/l kinetin and solidified with 5.5 g/l agarose (pH 5.7). Dishes were sealed and cultured at 24° C. with standard light conditions (16 h/day). After 3 weeks, calli developing at the ends of the explants were transferred to fresh M-338 [H76] plates (25 calli/plate). Calli were subcultured to fresh medium every 3 weeks (larger calli cut into two pieces).
Hypocotyl derived callus (9 weeks old) was used for the selection of herbicide resistant mutants. Small pieces of callus were plated on M-338 [H76] medium containing 25 nM of the ALS inhibitor Foramsulfuron (CAS RN 173159-57-4). […] Dishes were cultured at 24° C. with standard light conditions (16 h/day). After 3 weeks, the calli were divided into 2 pieces each and replated on M-338 [H76] medium containing 50 nM Foramsulfuron. […]

Row | SMILES | Percentage phytotoxicity HETO133-HETO134 9 DAA [1] | Percentage phytotoxicity HETO133-HETO134 16 DAA [1] | Percentage phytotoxicity HETO133-HETO134 24 DAA [1] | Percentage phytotoxicity WT 9 DAA [2] | Percentage phytotoxicity WT 16 DAA [2] | Percentage phytotoxicity WT 24 DAA [2] | Percentage phytotoxicity HETO133-HETO134 7 DAA [3] | Percentage phytotoxicity HETO133-HETO134 14 DAA [3] | Percentage phytotoxicity HETO133-HETO134 23 DAA [3] | Percentage phytotoxicity ABILITY 7 DAA [4] | Percentage phytotoxicity standard 14 DAA [4] | Percentage phytotoxicity standard 23 DAA [4] | Percentage phytotoxicity P197S-W574L 7 DAA [5] | Percentage phytotoxicity P197S-W574L 14 DAA [5] | Percentage phytotoxicity P197S-W574L 23 DAA [5] | Percentage phytotoxicity WTS 7 DAA [6] | Percentage phytotoxicity WTS 14 DAA [6] | Percentage phytotoxicity WTS 23 DAA [6] | effect on callus growth ([7]; 25 nM Foramsulfuron in M-338 [H76] medium, starting concentration) | effect on WT tissues ([7]; 250 nM Foramsulfuron in M-338 [H76] medium)
1 | COc1cc(OC)nc(Oc2cccc(Oc3nc(OC)cc(OC)n3)c2C(=O)O)n1 [Bispyribac, bispyribac-sodium] | 56.7% | 88.3% | 92.7% | 76.7% | 98.3% | 100% |  |  |  |  |  |  |  |  |  |  |  |  |  | 
2 | COc1nn(C(=O)[N-]S(=O)(=O)c2ccccc2OC(F)(F)F)c(=O)n1C.[Na+] [Flucarbazone, flucarbazone-sodium] |  |  |  |  |  |  | 0% | 0% | 0% | 85% | 98% | 99% | 10% | 6% | 10% | 85% | 98% | 99% |  | 
3 | COc1cc(OC)nc(NC(=O)NS(=O)(=O)c2cc(NC=O)ccc2C(=O)N(C)C)n1 [Foramsulfuron, foramsulfuron] |  |  |  |  |  |  |  |  |  |  |  |  |  |  |  |  |  |  | partially inhibitory to callus growth but not lethal | clearly inhibitory to WT tissues
4 | COCc1cnc(C2=NC(C)(C(C)C)C(=O)N2)c(C(=O)O)c1 (centres unmarked) [Imazamox, imazamox] | 6.7% | 10% | 0% | 73.3% | 98% | 99% |  |  |  |  |  |  |  |  |  |  |  |  |  | 
5 | COC(=O)c1ccc(CNS(C)(=O)=O)cc1S(=O)(=O)NC(=O)Nc1nc(OC)cc(OC)n1 [Mesosulfuron, mesosulfuron-methyl] | 11.7% | 13.3% | 3.3% | 76.7% | 98% | 96% | 33% | 38% | 35% | 85% | 98% | 99% | 40% | 40% | 45% | 85% | 98% | 99% |  | 
6 | COC(=O)c1ccccc1S(=O)(=O)NC(=O)Nc1nc(C)nc(OC)n1 [Metsulfuron, metsulfuron-methyl] |  |  |  |  |  |  | 50% | 63% | 78% | 86% | 98% | 99% | 45% | 50% | 62% | 86% | 98% | 99% |  | 
7 | CCCOc1nn(C(=O)[N-]S(=O)(=O)c2ccccc2C(=O)OC)c(=O)n1C.[Na+] [Propoxycarbazone, propoxycarbazone-sodium] | 53.3% | 82.7% | 76.7% | 76.7% | 97% | 97.7% | 57% | 72% | 83% | 86% | 98% | 99% | 47% | 52% | 47% | 86% | 98% | 99% |  | 
8 | COc1cc(OC)n2nc(NS(=O)(=O)c3c(C(F)(F)F)ccnc3OC)nc2n1 [Pyroxsulam, pyroxsulam] | 13.3% | 17% | 15% | 76.7% | 98% | 98% | 0% | 0% | 5% | 83% | 98% | 99% | 15% | 16% | 18% | 83% | 98% | 99% |  | 
9 | COC(=O)c1csc(C)c1S(=O)(=O)NC(=O)n1nc(OC)n(C)c1=O [TCM, thiencarbazone-methyl] |  |  |  |  |  |  | 0% | 0% | 3% | 85% | 98% | 99% | 16% | 13% | 17% | 85% | 98% | 99% |  | 

Reference: patent US20160160232A1, “ALS INHIBITOR HERBICIDE TOLERANT MUTANT PLANTS” (priority 2013, published 2016)
